Results published in patent US10513522B2, “Azetidinyl phenyl, pyridyl or pyrazinyl carboxamide derivatives as JAK inhibitors” (Incyte Corporation, priority 2011, dated 2019).

Test system: human JAK1 (a.a. 837-1142)
Assay: In vitro JAK kinase assay (HTRF, phosphorylation of biotinylated peptide), JAK1
Assay type: biochemical
Conditions: ratio of IC50 at 1 mM ATP
Protocol: The catalytic activity of JAK1, JAK2 or JAK3 was assayed by measuring the phosphorylation of a biotinylated peptide. The phosphorylated peptide was detected by homogenous time resolved fluorescence (HTRF). […] Reactions were carried out at room temperature for 1 hour and then stopped with 20 μL 45 mM EDTA, 300 nM SA-APC, 6 nM Eu-Py20 in assay buffer (Perkin Elmer, Boston, Mass.). Binding to the Europium labeled antibody took place for 40 minutes and HTRF signal was measured on a Fusion plate reader (Perkin Elmer, Boston, Mass.).

JAK2/JAK1	Structure (SMILES)
A (A means greater than or equal to 10)	N#CCC1(n2cc(-c3ccnc4[nH]ccc34)cn2)CN(c2cnc(C(=O)NCC(F)(F)F)cn2)C1 [Example 36, 5-{3-(Cyanomethyl)-3-[4-(1H-pyrrolo[2,3-b]pyridin-4-yl)-1H-pyrazol-1-yl]azetidin-1-yl}-N-(2,2,2-trifluoroethyl)pyrazine-2-carboxamide]
A (A means greater than or equal to 10)	C[C@H](NC(=O)c1cc(F)c(N2CC(CC#N)(n3cc(-c4ncnc5[nH]ccc45)cn3)C2)cc1F)C(F)(F)F [Example 28, 4-{3-(Cyanomethyl)-3-[4-(7H-pyrrolo[2,3-d]pyrimidin-4-yl)-1H-pyrazol-1-yl]azetidin-1-yl}-2,5-difluoro-N-[(1S)-2,2,2-trifluoro-1-methylethyl]benzamide]
A (A means greater than or equal to 10)	CC(C)NC(=O)c1cc(Cl)c(N2CC(CC#N)(n3cc(-c4ncnc5[nH]ccc45)cn3)C2)cc1F [Example 8, 5-Chloro-4-{3-(cyanomethyl)-3-[4-(7H-pyrrolo[2,3-d]pyrimidin-4-yl)-1H-pyrazol-1-yl]azetidin-1-yl}-2-fluoro-N-isopropylbenzamide]
A (A means greater than or equal to 10)	C[C@H](NC(=O)c1ccc(N2CC(CC#N)(n3cc(-c4ncnc5[nH]ccc45)cn3)C2)cc1F)C1CCCCC1 [Example 15, 4-{3-(Cyanomethyl)-3-[4-(7H-pyrrolo[2,3-d]pyrimidin-4-yl)-1H-pyrazol-1-yl]azetidin-1-yl}-N-[(1S)-1-cyclohexylethyl]-2-fluorobenzamide]
A (A means greater than or equal to 10)	CC(C)NC(=O)c1ccc(N2CC(CC#N)(n3cc(-c4ncnc5[nH]ccc45)cn3)C2)cc1 [Example 13, 4-{3-(Cyanomethyl)-3-[4-(7H-pyrrolo[2,3-d]pyrimidin-4-yl)-1H-pyrazol-1-yl]azetidin-1-yl}-N-isopropylbenzamide]
A (A means greater than or equal to 10)	C[C@@H](NC(=O)c1ccc(N2CC(CC#N)(n3cc(-c4ncnc5[nH]ccc45)cn3)C2)c(F)c1)C(F)(F)F [Example 16, 4-{3-(Cyanomethyl)-3-[4-(7H-pyrrolo[2,3-d]pyrimidin-4-yl)-1H-pyrazol-1-yl]azetidin-1-yl}-3-fluoro-N-[(1R)-2,2,2-trifluoro-1-methylethyl]benzamide]
A (A means greater than or equal to 10)	C[C@@H](NC(=O)c1cc(F)c(N2CC(CC#N)(n3cc(-c4ncnc5[nH]ccc45)cn3)C2)cc1F)C1CC1 [Example 21, 4-{3-(Cyanomethyl)-3-[4-(7H-pyrrolo[2,3-d]pyrimidin-4-yl)-1H-pyrazol-1-yl]azetidin-1-yl}-N-[(1R)-1-cyclopropylethyl]-2,5-difluorobenzamide]
A (A means greater than or equal to 10)	CC(C)NC(=O)c1cc(F)c(N2CC(CC#N)(n3cc(-c4ncnc5[nH]ccc45)cn3)C2)cc1F [Example 6, 4-{3-(Cyanomethyl)-3-[4-(7H-pyrrolo[2,3-d]pyrimidin-4-yl)-1H-pyrazol-1-yl]azetidin-1-yl}-2,5-difluoro-N-isopropylbenzamide]
A (A means greater than or equal to 10)	N#CCC1(n2cc(-c3ncnc4[nH]ccc34)cn2)CN(c2ccc(C(=O)NC3(C(F)(F)F)CC3)nc2)C1 [Example 17, 5-{3-(Cyanomethyl)-3-[4-(7H-pyrrolo[2,3-d]pyrimidin-4-yl)-1H-pyrazol-1-yl]azetidin-1-yl}-N-[1-(trifluoromethyl)cyclopropyl]pyridine-2-carboxamide]
A (A means greater than or equal to 10)	CC(C)NC(=O)c1ccc(N2CC(CC#N)(n3cc(-c4ncnc5[nH]ccc45)cn3)C2)c(F)c1 [Example 3, 4-{3-(Cyanomethyl)-3-[4-(7H-pyrrolo[2,3-d]pyrimidin-4-yl)-1H-pyrazol-1-yl]azetidin-1-yl}-3-fluoro-N-isopropylbenzamide]
A (A means greater than or equal to 10)	N#CCC1(n2cc(-c3ncnc4[nH]ccc34)cn2)CN(c2cnc(C(=O)N[C@@H](C3CC3)C(F)(F)F)cn2)C1 [Example 32, 5-{3-(Cyanomethyl)-3-[4-(7H-pyrrolo[2,3-d]pyrimidin-4-yl)-1H-pyrazol-1-yl]azetidin-1-yl}-N-[(1S)-1-cyclopropyl-2,2,2-trifluoroethyl]pyrazine-2-carboxamide]
A (A means greater than or equal to 10)	C[C@H](NC(=O)c1ccc(N2CC(CC#N)(n3cc(-c4ncnc5[nH]ccc45)cn3)C2)c(F)c1)C1CC1 [Example 5, 4-{3-(Cyanomethyl)-3-[4-(7H-pyrrolo[2,3-d]pyrimidin-4-yl)-1H-pyrazol-1-yl]azetidin-1-yl}-N-[(1S)-1-cyclopropylethyl]-3-fluorobenzamide]
A (A means greater than or equal to 10)	N#CCC1(n2cc(-c3ncnc4[nH]ccc34)cn2)CN(c2ccc(C(=O)NC3CC(F)(F)C3)nc2)C1 [Example 12, 5-{3-(Cyanomethyl)-3-[4-(7H-pyrrolo[2,3-d]pyrimidin-4-yl)-1H-pyrazol-1-yl]azetidin-1-yl}-N-(3,3-difluorocyclobutyl)pyridine-2-carboxamide]
A (A means greater than or equal to 10)	C[C@H](NC(=O)c1cnc(N2CC(CC#N)(n3cc(-c4ccnc5[nH]ccc45)cn3)C2)cn1)C(F)(F)F [Example 35, 5-{3-(Cyanomethyl)-3-[4-(1H-pyrrolo[2,3-b]pyridin-4-yl)-1H-pyrazol-1-yl]azetidin-1-yl}-N-[(1S)-2,2,2-trifluoro-1-methylethyl]pyrazine-2-carboxamide]
A (A means greater than or equal to 10)	N#CCC1(n2cc(-c3ncnc4[nH]ccc34)cn2)CN(c2cc(F)c(C(=O)NCC(F)F)cc2F)C1 [Example 37, 4-{3-(Cyanomethyl)-3-[4-(7H-pyrrolo[2,3-d]pyrimidin-4-yl)-1H-pyrazol-1-yl]azetidin-1-yl}-N-(2,2-difluoroethyl)-2,5-difluorobenzamide]
A (A means greater than or equal to 10)	C[C@H](NC(=O)c1cnc(N2CC(CC#N)(n3cc(-c4ccnc5[nH]ccc45)cn3)C2)cn1)C1CC1 [Example 41, 5-{3-(Cyanomethyl)-3-[4-(1H-pyrrolo[2,3-b]pyridin-4-yl)-1H-pyrazol-1-yl]azetidin-1-yl}-N-[(1S)-1-cyclopropylethyl]pyrazine-2-carboxamide]
A (A means greater than or equal to 10)	C[C@H](NC(=O)c1ccc(N2CC(CC#N)(n3cc(-c4ncnc5[nH]ccc45)cn3)C2)c(F)c1)C(F)(F)F [Example 10, 4-{3-(Cyanomethyl)-3-[4-(7H-pyrrolo[2,3-d]pyrimidin-4-yl)-1H-pyrazol-1-yl]azetidin-1-yl}-3-fluoro-N-[(1S)-2,2,2-trifluoro-1-methylethyl]benzamide]
A (A means greater than or equal to 10)	CN(C(=O)c1ccc(N2CC(CC#N)(n3cc(-c4ncnc5[nH]ccc45)cn3)C2)c(F)c1)C1CC1 [Example 7, 4-{3-(Cyanomethyl)-3-[4-(7H-pyrrolo[2,3-d]pyrimidin-4-yl)-1H-pyrazol-1-yl]azetidin-1-yl}-N-cyclopropyl-3-fluoro-N-methylbenzamide]
A (A means greater than or equal to 10)	CC(C)NC(=O)c1ccc(N2CC(CC#N)(n3cc(-c4ncnc5[nH]ccc45)cn3)C2)cn1 [Example 9, 5-{3-(Cyanomethyl)-3-[4-(7H-pyrrolo[2,3-d]pyrimidin-4-yl)-1H-pyrazol-1-yl]azetidin-1-yl}-N-isopropylpyridine-2-carboxamide]
A (A means greater than or equal to 10)	C[C@H](NC(=O)c1ccc(N2CC(CC#N)(n3cc(-c4ncnc5[nH]ccc45)cn3)C2)cc1F)C(F)(F)F [Example 22, 4-{3-(Cyanomethyl)-3-[4-(7H-pyrrolo[2,3-d]pyrimidin-4-yl)-1H-pyrazol-1-yl]azetidin-1-yl}-2-fluoro-N-[(1S)-2,2,2-trifluoro-1-methylethyl]benzamide]
A (A means greater than or equal to 10)	C[C@@H](NC(=O)c1cc(F)c(N2CC(CC#N)(n3cc(-c4ncnc5[nH]ccc45)cn3)C2)cc1F)C(F)(F)F [Example 29, 4-{3-(Cyanomethyl)-3-[4-(7H-pyrrolo[2,3-d]pyrimidin-4-yl)-1H-pyrazol-1-yl]azetidin-1-yl}-2,5-difluoro-N-[(1R)-2,2,2-trifluoro-1-methylethyl]benzamide]
A (A means greater than or equal to 10)	N#CCC1(n2cc(-c3ncnc4[nH]ccc34)cn2)CN(c2cnc(C(=O)NC3(C(F)(F)F)CC3)cn2)C1 [Example 33, 5-{3-(Cyanomethyl)-3-[4-(7H-pyrrolo[2,3-d]pyrimidin-4-yl)-1H-pyrazol-1-yl]azetidin-1-yl}-N-[1-(trifluoromethyl)cyclopropyl]pyrazine-2-carboxamide]
A (A means greater than or equal to 10)	N#CCC1(n2cc(-c3ccnc4[nH]ccc34)cn2)CN(c2ccc(C(=O)NC3(C(F)(F)F)CC3)nc2)C1 [Example 40, 5-{3-(Cyanomethyl)-3-[4-(1H-pyrrolo[2,3-b]pyridin-4-yl)-1H-pyrazol-1-yl]azetidin-1-yl}-N-[1-(trifluoromethyl)cyclopropyl]pyridine-2-carboxamide]
A (A means greater than or equal to 10)	CC(NC(=O)c1ccc(N2CC(CC#N)(n3cc(-c4ncnc5[nH]ccc45)cn3)C2)cc1)C1CCN(C)CC1 (centres unmarked) [Example 20, 4-{3-(Cyanomethyl)-3-[4-(7H-pyrrolo[2,3-d]pyrimidin-4-yl)-1H-pyrazol-1-yl]azetidin-1-yl}-N-[1-(1-methylpiperidin-4-yl)ethyl]benzamide]

Structure (SMILES)	JAK2/JAK1
CC[C@@H](C)NC(=O)c1ccc(N2CC(CC#N)(n3cc(-c4ncnc5[nH]ccc45)cn3)C2)cc1.O=C(O)C(F)(F)F.O=C(O)C(F)(F)F [Example 25, 4-{3-(Cyanomethyl)-3-[4-(7H-pyrrolo[2,3-d]pyrimidin-4-yl)-1H-pyrazol-1-yl]azetidin-1-yl}-N-[(1R)-1-methylpropyl]benzamide bis(trifluoroacetate)]	A (A means greater than or equal to 10)
CC(C)NC(=O)c1ccc(N2CC(CC#N)(n3cc(-c4ccnc5[nH]ccc45)cn3)C2)cc1 [Example 1, 4-{3-(Cyanomethyl)-3-[4-(1H-pyrrolo[2,3-b]pyridin-4-yl)-1H-pyrazol-1-yl]azetidin-1-yl}-N-isopropylbenzamide]	A (A means greater than or equal to 10)
